Measured values from patent publication US8617542B2, “DispersinB™, 5-fluorouracil, deoxyribonuclease I and proteinase K-based antibiofilm compositions and uses thereof” (Kane Biotech Inc., priority 2008, dated 2013).
In brackets after ≈: the same amount, converted by molar mass.

What was measured:
Format in all cases: cell-based
Staphylococcus aureus = test: MIC in 96 well microtiter plate, S. aureus; conditions: TSB, 5×10^5 CFU/mL, 37° C.
Description: (§1) The antimicrobial activity of 5-fluorouracil (FU) was studied by determining minimal inhibitory concentrations (MIC) in a 96 well microtiter plate. Briefly, serial two-fold dilutions of FU were performed in TSB. A suspension of each microorganism from Table 1 was added to wells at a concentration of 5×10^5 CFU/mL, and the microtiter plates were incubated at 37° C. The MIC was defined, as the lowest concentration of an antimicrobial required for total inhibition of a test microorganism at 37° C. 5-Fluorouracil was active against all the pathogens tested (Table 1).

Pseudomonas aeruginosa = test: MIC in 96 well microtiter plate, P. aeruginosa; conditions: TSB, 5×10^5 CFU/mL, 37° C.
Description: as §1

[1] = tested on: cystic fibrosis-associated pathogens; test: antimicrobial activity (MIC) against all pathogens tested; conditions: pathogens of Table 1
Description: as §1

Burkholderia cepacia = test: MIC in 96 well microtiter plate, B. cepacia; conditions: TSB, 5×10^5 CFU/mL, 37° C.
Description: as §1

## O=c1[nH]cc(F)c(=O)[nH]1 [5-Fluorouracil, 5-fluoro-2,4(1H,3H)-Pyrimidinedione]
Staphylococcus aureus
  MIC: 25 µg/mL (≈ 192 µM)
Pseudomonas aeruginosa
  MIC: 31.2 µg/mL (≈ 240 µM)
[1]
  antimicrobial activity against all the pathogens tested: active
Burkholderia cepacia
  MIC: 62.5 µg/mL (≈ 480 µM)
